This note sets out measurements from patent US20230104281A1, “FLUORESCENT RHODAMINE DYES WITH ENHANCED CELL PERMEABILITY” (Max-Planck-Gesellschaft zur Foerderung der Wissenschaften …, priority 2020, published 2023).

Data set [1] can be described thus: Absorbance in 1,4-dioxane-water mixtures (D50, spirolactone-zwitterion equilibrium). The settings on record: 1,4-Dioxane-Water with constant 0.3% SDS additive; dielectric constant at which absorbance is halved. The data set is classed as physicochemical. How it is done: The D50 values indicated herein are determined by measuring the respective absorbance of a sample (dye isomer or derivative or conjugate thereof), in varied water-1,4-dioxane mixtures with known dielectric constants according to an established method (e.g. Åkerlöf G, Short AO. J Am Chem Soc 1936, 58(7): 1241-1243). D50 is commonly used as numeric value for the evaluation of the equilibrium changes and represents a dielectric constant at which absorbance is halved (Butkevich A. N.; Mitronova G. Y.; Sidenstein. S. C.; Klocke J. L.; Kamin D.; Meineke D. N. H.; D'Este E.; Kraemer P. T.; Danzl J. G.; Belov V. N.; Hell S. W., Angew. Chem. Int. Ed. 2016, 55, 3290-3294).
The D50 values were calculated using the following equation:
where A0—absorbance at λmax at εr=0, λmax—the highest reached absorbance at λmax, d—dielectric constant of 1,4-dioxane-water mixture at a given point, Hill—Hill slope coefficient determining the steepness of a dose-response curve, D50—corresponds to d value that provokes half of the absorbance amplitude (λmax−A0).
Measurements of the absorbance changes in 1,4-dioxane-water mixtures were performed by pipetting 2 μL stock solutions of dyes or probes in DMSO into a 96 glass bottom well plate (11 wells per sample) made from propylene (Corning 3364). To the wells going from right to left 300 μL of 1,4-dioxane-water mixtures containing 100%, 90%, 80%, 70%, 60%, 50%, 40%, 30%, 20%, 10% or 0% 1,4-dioxane was added (if needed, mixtures with 0.3% SDS are used, with an exception in 100% dioxane due to solubility issues). After incubation for 1 hour at room temperature, absorption of solutions in each well was recorded from 320 nm to 850 nm with wavelength step size of 1 nm on a multiwell plate reader Spark® 20M (Tecan). The background absorption of the glass bottom plate was measured in wells containing only 1,4-dioxane-water mixture with similar amount of DMSO and subtracted from the spectra of the samples. […]
where A0—absorbance at λmax at εr=0, λmax—the highest reached absorbance at λmax. d—dielectric constant of 1,4-dioxane-water mixture at a given point, Hill—Hill slope coefficient determining the steepness of a dose-response curve, D50—corresponds to d value that provokes half of the absorbance amplitude (λmax−A0).
The ability of the fluorophores to switch between spirolactone and zwitterion states can be characterized by measuring the absorbance in water-1,4-dioxane mixtures with known dielectric constant (Åkerlöf G, Short A O. J Am Chem Soc 1936, 58(7): 1241-1243). D50 is commonly used as numeric value for the evaluation of the equilibrium changes and represents a dielectric constant at which absorbance is halved.

For another data set, the system named is HeLa cells. Nature of the data set: Cell cycle analysis by imaging flow cytometry and EC50 determination (subG1 cells, cytotoxicity of tubulin probes). The format is cell-based. As to conditions: 24 h incubation at 37° C. in growth media; compared with parent compound larotaxel. How it is done:
HeLa cells were grown in 6-well plates (^˜250.000 cells per well) for 24 h in the presence of the fluorescent probe in variable concentrations. The probes were dissolved in DMSO at 500-2000-fold stock concentration and added to the media of cultured cells at 500-2000-fold dilution accordingly. In parallel, the appropriate DMSO control samples were prepared by adding corresponding amount of DMSO volume to the separate well. Cells were processed according to the NucleoCounter® NC-3000™ two-step cell cycle analysis protocol for cells attached to T-flasks, cell culture plates or micro-carriers. […] Cells were counted on a NucleoCounter® NC-3000™ in NC-Slide A2™ slides (Chemometec, Cat. No. 942-0001) loaded with ˜30 μl of each of the cell suspensions into the chambers of the slide. Each time, ^˜10.000 cells in total were measured, and the obtained cell cycle histograms were analysed with ChemoMetec NucleoView NC-3000 software, version 2.1.25.8. […] The EC50 values were determined by plotting the percentage of cells in subG1 phase and fitting the curve in GraphPad Prism 6 to the following function: […]
As mentioned above, FIG. 3. illustrates the tubulin labelling of mammalian cells: a, structures of the tubulin probes. b, Wide-field fluorescence microscopy of living primary fibroblasts stained 100 nM TMR-LTX isomers for 1 h at 37° C. […]
A general note: A flow cytometer gives signals particle by particle.

The subject of a further data set is tubulin. Nature of the data set: Wide-field fluorescence microscopy of living primary fibroblasts stained with tubulin probes. The data set is classed as cell-based, human. How it is done:
Human primary dermal fibroblasts and HeLa cells were cultured in high-glucose DMEM (Life Technologies, Cat. No. 31053-028) supplemented with GlutaMAX-1 (Life Technologies, Cat. No. 35050-038) and 10% fetal bovine serum (FBS, Life Technologies, Cat. No. 10270-106) in a humidified 5% CO2 incubator at 37° C. The cells were split every 3-4 days or at confluence. Cells were seeded in glass bottom 12-well plates (MatTek Corporation, Cat. No. P12G-1.0-14-F).
Cells were stained with the fluorescent probes in DMEM (Thermo Fisher Scientific, Cat. No. 31053-028) supplemented with 10% FBS (Thermo Fisher Scientific, Cat. No. 10082139) at 37° C. and 5% CO2. […]
Actin/tubulin cytosolic signal was estimated using CellProfiler v.3.1.8. […] The background was subtracted from the original probe channel, and actin/tubulin staining was measured as mean pixel intensity per object in background-corrected probe channel. […]
As mentioned above, FIG. 3. illustrates the tubulin labelling of mammalian cells: a, structures of the tubulin probes. b, Wide-field fluorescence microscopy of living primary fibroblasts stained 100 nM TMR-LTX isomers for 1 h at 37° C. […] Hoechst staining is shown in cyan and all tubulin probes were shown in magenta. c, Quantification of fluorescence signal in the cytoplasm of living cells stained with tubulin probes. […]

Each structure is given as a SMILES string.

For the compound `CO[C@H]1C(=O)[C@]2(C)[C@@H](OC)C[C@H]3OC[C@@]3(OC(C)=O)[C@H]2[C@H](OC(=O)c2ccccc2)[C@]2(O)C[C@H](OC(=O)[C@H](O)[C@@H](NC(=O)CCCCCCCNC(=O)c3cccc4c3C(=O)OC43c4ccc(N(C)C)cc4C(C)(C)c4cc(N(C)C)ccc43)c3ccccc3)C(C)=C1C2(C)C` [610CP-CTX 4′-isomer], the D50 in data set [1] came to 65 ± 2.

Consider `CNc1ccc2c(c1)C(C)(C)c1cc(NC)ccc1C21OC(=O)c2c(C(=O)NCCCCCCCC(=O)N[C@@H](c3ccccc3)[C@@H](O)C(=O)O[C@H]3C[C@@]4(O)[C@@H](OC(=O)c5ccccc5)[C@@H]5[C@]6(OC(C)=O)CO[C@@H]6C[C@@H]6C[C@@]65C(=O)[C@H](OC(C)=O)C(=C3C)C4(C)C)cccc21` [580CP-LTX 4′-isomer], for which the D50 in data set [1] amounted to 62 ± 1.

On to `CC(=O)O[C@H]1C(=O)[C@]23C[C@H]2C[C@H]2OC[C@@]2(OC(C)=O)[C@H]3[C@H](OC(=O)c2ccccc2)[C@]2(O)C[C@H](OC(=O)[C@H](O)[C@@H](NC(=O)CCCCCCCNC(=O)c3cccc4c3C(=O)OC43c4ccc(N(C)C)cc4Oc4cc(N(C)C)ccc43)c3ccccc3)C(C)=C1C2(C)C` [TMR-LTX 4′-isomer], for which, in data set [1], the D50 stood at 26.5 ± 0.5. The “EC50, accumulation of subG1 phase cells (cytotoxicity)” value in the data set on HeLa cells is given as “almost as efficiently as parent compound”. The membrane permeability result with tubulin (living cells, 100 nM probe, 1 h at 37° C., compared to 5′- and 6′-isomers) is recorded as “excellent membrane permeability”. The tubulin labelling specificity result in the data set with tubulin (mammalian cells, simple incubation with probe) is on record as “highly specific tubulin labelling”.

Take `CO[C@H]1C(=O)[C@]2(C)[C@@H](OC)C[C@H]3OC[C@@]3(OC(C)=O)[C@H]2[C@H](OC(=O)c2ccccc2)[C@]2(O)C[C@H](OC(=O)[C@H](O)[C@@H](NC(=O)CCCCCCCNC(=O)c3cccc4c3C(=O)OC43c4ccc(N(C)C)cc4[Si](C)(C)c4cc(N(C)C)ccc43)c3ccccc3)C(C)=C1C2(C)C` [SiR-CTX 4′-isomer]: in data set [1], the D50 is recorded as above 80.
